Laboratory results: patent US7618983B2, “Bicyclic triazole α4 integrin inhibitors” (Janssen Pharmaceutica, N.V., priority 2004, dated 2009)
Where two headings read alike, the source gives them in different places.

Assays:
human α4β7 integrin = target: T1, human α4β7 integrin (Homo sapiens, UniProt P13612+P26010); test: α4β7-K562 Cell Adhesion Assay (α4β7 Mediated Adhesion/MAdCAM-1); assay type: cell-based; conditions: K562 cells expressing human α4β7 adhering to FLAG-hMAdCAM-1, 1 mM Mn2+; read-out: α4β7, Madcam IC50
T1 construct: expressed in transfected cells; host or cells: K562 cells, stably transfected
T1 sequence (P13612 34-1032): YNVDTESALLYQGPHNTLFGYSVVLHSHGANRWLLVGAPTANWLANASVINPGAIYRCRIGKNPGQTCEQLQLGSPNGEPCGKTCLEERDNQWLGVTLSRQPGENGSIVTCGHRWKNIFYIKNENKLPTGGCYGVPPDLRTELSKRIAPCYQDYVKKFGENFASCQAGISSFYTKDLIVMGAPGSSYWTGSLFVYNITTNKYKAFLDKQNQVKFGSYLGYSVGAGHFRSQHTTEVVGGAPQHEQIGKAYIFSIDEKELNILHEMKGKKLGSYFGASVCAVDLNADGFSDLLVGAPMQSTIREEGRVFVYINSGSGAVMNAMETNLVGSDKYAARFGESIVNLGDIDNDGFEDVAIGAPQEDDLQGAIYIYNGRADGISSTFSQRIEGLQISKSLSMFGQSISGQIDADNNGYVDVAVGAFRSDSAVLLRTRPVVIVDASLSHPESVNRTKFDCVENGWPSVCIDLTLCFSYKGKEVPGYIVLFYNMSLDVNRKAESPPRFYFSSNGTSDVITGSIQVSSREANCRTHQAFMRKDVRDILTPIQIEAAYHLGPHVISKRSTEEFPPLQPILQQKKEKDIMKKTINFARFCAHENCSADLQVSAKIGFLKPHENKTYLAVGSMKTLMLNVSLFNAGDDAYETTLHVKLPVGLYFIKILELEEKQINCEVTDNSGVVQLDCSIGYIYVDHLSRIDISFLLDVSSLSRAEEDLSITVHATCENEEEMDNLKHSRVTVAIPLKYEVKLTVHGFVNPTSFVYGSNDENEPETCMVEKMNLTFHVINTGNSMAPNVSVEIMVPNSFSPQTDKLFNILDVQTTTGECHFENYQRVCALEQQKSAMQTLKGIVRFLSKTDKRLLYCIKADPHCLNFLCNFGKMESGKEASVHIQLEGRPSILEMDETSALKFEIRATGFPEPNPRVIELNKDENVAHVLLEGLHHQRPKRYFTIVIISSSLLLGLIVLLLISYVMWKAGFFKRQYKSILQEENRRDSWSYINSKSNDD
T1 sequence (P26010 20-798): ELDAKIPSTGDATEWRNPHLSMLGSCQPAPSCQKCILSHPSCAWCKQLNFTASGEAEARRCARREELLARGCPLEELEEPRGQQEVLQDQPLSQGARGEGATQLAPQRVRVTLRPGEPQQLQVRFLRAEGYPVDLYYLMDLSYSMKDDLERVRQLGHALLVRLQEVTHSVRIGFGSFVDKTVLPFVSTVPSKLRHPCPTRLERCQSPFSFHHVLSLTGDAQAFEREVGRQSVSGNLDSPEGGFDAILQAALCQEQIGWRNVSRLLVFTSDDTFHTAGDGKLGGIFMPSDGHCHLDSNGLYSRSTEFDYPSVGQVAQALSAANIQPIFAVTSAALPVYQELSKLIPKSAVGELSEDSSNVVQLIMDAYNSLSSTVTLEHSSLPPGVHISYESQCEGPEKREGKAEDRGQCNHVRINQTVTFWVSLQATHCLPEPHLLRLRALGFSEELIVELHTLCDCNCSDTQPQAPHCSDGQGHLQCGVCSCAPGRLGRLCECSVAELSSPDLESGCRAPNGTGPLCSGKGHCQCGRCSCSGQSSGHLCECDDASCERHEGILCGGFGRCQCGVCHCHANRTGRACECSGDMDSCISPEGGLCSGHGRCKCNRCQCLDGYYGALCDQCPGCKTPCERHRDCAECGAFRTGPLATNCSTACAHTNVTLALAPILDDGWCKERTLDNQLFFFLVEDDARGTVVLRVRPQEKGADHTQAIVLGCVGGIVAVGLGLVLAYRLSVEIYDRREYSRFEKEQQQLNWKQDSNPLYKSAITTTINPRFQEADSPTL
Experimental: α4β7-K562 Cell Adhesion Assay (α4β7 Mediated Adhesion/MAdCAM-1)
M2 anti-FLAG antibody coated 96-well plates (Sigma) were coated for 1 hour at 4° C. with 2-8 μl/well recombinant FLAG-hMAdCAM-1 contained in 100 μL of Dulbecco's PBS, pH 7.4, with 1% BSA and 1 mM Mn^2+ (PBS-BSA-Mn). Plates were washed once with PBS-BSA-Mn. Buffer was removed and compounds to be tested (50 μL) were added at 2 times concentration. Stably transfected K562 cells expressing human α4β7 integrin, (50 μL at 2×10^6/mL) that had been labeled with 100 μg/mL carboxymethyl fluorescein diacetate succinimidyl ester (CFDA-SE; Molecular Probes) for 15 min at 37° C. were added to each well and allowed to adhere for 1 h at room temperature. Plates were washed 4 times in PBS-BSA-Mn and then cells were lysed for 2 minutes by addition of 100 μL of PBS without Ca, Mg supplemented with 0.1 M NaOH. The plate was read on a 96-well fluorescent plate reader at 485 nm excitation and 530 nm emission.

α4β1 [1] = target: T2, α4β1 (Homo sapiens, UniProt P05556+P13612); test: Ramos Cell Adhesion Assay (α4β1 Mediated Adhesion/VCAM-1); assay type: cell-based; design: Ramos Cell Adhesion Assay (α4β1 Mediated Adhesion/VCAM-1); endogenous in cells; host or cells: Ramos cells; conditions: Ramos cells adhering to recombinant hVCAM-1; read-out: α4β1 IC50
Experimental: Ramos Cell Adhesion Assay (α4β1 Mediated Adhesion/VCAM-1)
Immulon 96 well plates (Dynex) were coated with 100 μL recombinant hVCAM-1 at 4.0 μg/mL in 0.05 M NaCO3 buffer pH 9.0 overnight at 4° C. (R&D Systems). Plates were washed 3 times in PBS with 1% BSA and blocked for 1 h @ room temperature in this buffer. PBS was removed and compounds to be tested (50 μL) were added at 2× concentration. Ramos cells, (50 μL at 2×10^6/mL) labeled with 5 μM Calcein AM (Molecular Probes) for 1 h at 37° C., were added to each well and allowed to adhere for 1 h at room temperature. Plates were washed 3× in PBS+1% BSA and cells were lysed for 15 minutes in 100 μL of 1 M Tris pH 8.0 with 1% SDS. The plate was read at 485 nm excitation and 530 nm emission.

α4β1 [2] = target: T2, α4β1; conditions: cited from earlier work
[3] = test system: oxazolone-induced contact hypersensitivity; conditions: 6 mg/kg, sc; compared with α4 antibody PS/2; cited from earlier work
[4] = test system: heterotopic heart allograft; conditions: hyperlipidemic rabbit; cited from earlier work

T2 sequence (P05556 21-798, one chain of several): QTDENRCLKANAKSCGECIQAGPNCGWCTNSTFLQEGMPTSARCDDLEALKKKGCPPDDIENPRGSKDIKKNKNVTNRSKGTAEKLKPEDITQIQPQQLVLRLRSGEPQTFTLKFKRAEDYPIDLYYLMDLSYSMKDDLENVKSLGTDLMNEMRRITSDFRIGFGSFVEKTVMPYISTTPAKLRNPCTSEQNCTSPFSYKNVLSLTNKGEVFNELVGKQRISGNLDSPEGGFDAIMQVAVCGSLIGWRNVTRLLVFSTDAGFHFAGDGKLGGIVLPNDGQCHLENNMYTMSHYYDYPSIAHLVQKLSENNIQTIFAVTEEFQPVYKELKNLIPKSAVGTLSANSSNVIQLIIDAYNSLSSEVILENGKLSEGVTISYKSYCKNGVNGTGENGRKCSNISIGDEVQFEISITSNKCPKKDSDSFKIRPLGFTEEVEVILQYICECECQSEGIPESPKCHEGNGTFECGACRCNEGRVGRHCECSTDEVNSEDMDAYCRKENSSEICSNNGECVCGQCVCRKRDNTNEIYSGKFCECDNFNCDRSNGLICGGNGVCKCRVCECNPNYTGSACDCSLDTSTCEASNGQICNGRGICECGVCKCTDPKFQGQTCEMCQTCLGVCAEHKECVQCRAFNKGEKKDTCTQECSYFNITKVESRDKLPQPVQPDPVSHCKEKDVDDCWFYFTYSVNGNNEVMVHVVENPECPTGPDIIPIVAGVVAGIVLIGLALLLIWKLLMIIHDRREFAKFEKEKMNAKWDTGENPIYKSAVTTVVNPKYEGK

Row | Compound | IC50 (human α4β7 integrin) [nM] | IC50 (α4β1 [1]) [nM] | IC50 (α4β1 [2]) [nM] | efficacy in contact hypersensitivity [3] | efficacy in heart allograft model [4]
1 | COc1cccc(OC)c1-c1ccc(C[C@H](NC(=O)[C@@H]2CCc3nnc(Cc4ccsc4)n32)C(=O)O)cc1 [Cpd 15, 3-(2′,6′-Dimethoxy-biphenyl-4-yl)-2-(S)-[(3-thiophen-3-ylmethyl-6,7-dihydro-5H-pyrrolo[2,1-c][1,2,4]triazole-5-(S)-carbonyl)-amino]-propionic acid] | 90 | 710 | – | – | –
2 | COc1cccc(OC)c1-c1ccc(CC(NC(=O)C2CCc3nnc(Cc4c[nH]c5ccccc45)n32)C(=O)O)cc1 (centres unmarked) [Cpd 16, 3-(2′,6′-Dimethoxy-biphenyl-4-yl)-2-{[3-(1H-indol-3-ylmethyl)-6,7-dihydro-5H-pyrrolo[2,1-c][1,2,4]triazole-5-carbonyl]-amino}-propionic acid] | 40 | > 5000 | – | – | –
3 | COc1cnn(C)c(=O)c1-c1ccc(C[C@H](NC(=O)[C@@H]2CCc3nnc(Cc4ccccc4)n32)C(=O)O)cc1 [Cpd 17, 2-(S)-[(3-Benzyl-6,7-dihydro-5H-pyrrolo[2,1-c][1,2,4]triazole-5-(S)-carbonyl)-amino]-3-[4-(5-methoxy-2-methyl-3-oxo-2,3-dihydro-pyridazin-4-yl)-phenyl]-propionic acid] | 400 | 640 | – | – | –
4 | O=C(Nc1ccc(C[C@H](NC(=O)[C@@H]2CCc3n[nH]c(=O)n32)C(=O)O)cc1)c1c(Cl)cccc1Cl [Cpd 18, 3-[4-(2,6-Dichloro-benzoylamino)-phenyl]-2-(S)-[(3-oxo-2,5,6,7-tetrahydro-3H-pyrrolo[2,1-c][1,2,4]triazole-5-(S)-carbonyl)-amino]-propionic acid] | 90 | 850 | – | – | –
5 | O=C(Nc1ccc(C[C@H](NC(=O)[C@@H]2CCc3nn(Cc4ccccc4)c(=O)n32)C(=O)O)cc1)c1c(Cl)cccc1Cl [Cpd 19, 2-(S)-[(2-Benzyl-3-oxo-2,5,6,7-tetrahydro-3H-pyrrolo[2,1-c][1,2,4]triazole-5-(S)-carbonyl)-amino]-3-[4-(2,6-dichloro-benzoylamino)-phenyl]-propionic acid] | 200 | > 5000 | – | – | –
6 | O=C(Nc1ccc(C[C@H](NC(=O)[C@@H]2CCc3n[nH]c(=O)n32)C(=O)O)cc1)c1c(Cl)cncc1Cl [Cpd 20, 3-{4-[(3,5-Dichloro-pyridine-4-carbonyl)-amino]-phenyl}-2-(S)-[(3-oxo-2,5,6,7-tetrahydro-3H-pyrrolo[2,1-c][1,2,4]triazole-5-(S)-carbonyl)-amino]-propionic acid] | 50 | 450 | – | – | –
7 | O=C(Nc1ccc(C[C@H](NC(=O)[C@@H]2CCc3nn(Cc4ccccc4)c(=O)n32)C(=O)O)cc1)c1c(Cl)cncc1Cl [Cpd 21, 2-(S)-[(2-Benzyl-3-oxo-2,5,6,7-tetrahydro-3H -pyrrolo[2,1-c][1,2,4]triazole-5-(S)-carbonyl)-amino]-3-{4-[(3,5-dichloro-pyridine-4-carbonyl)-amino]-phenyl}-propionic acid] | 780 | > 5000 | – | – | –
8 | Phenylacetyl-Leu-Asp-Phe-D-Pro-NH2 | – | – | 2000 | efficacy similar to the α4 antibody PS/2 | effective
